This note sets out measurements from US11840560B2, “Prodrugs and uses thereof” (Novo Nordisk A/S, priority 2022, dated 2023).

*1 amine or outer side, *2 acyl side, *3 side chain or, on linkers, in order; H or OH if unused. Where a SMILES comes first, the peptide text is derived from it. Side-chain parts run from the residue outwards. [ ]: non-standard residue; d: D form. The star is where a group is joined. N(2-Aminoethyl)Gly = O=C(CN(CCN[*:3])[*:1])[*:2]; C18 diacid = O=C(O)CCCCCCCCCCCCCCCCC(=O)*; C16 diacid = O=C(O)CCCCCCCCCCCCCCC(=O)*; γGlu = O=C(O)[C@H](CCC(=O)[*:2])N[*:1]; εLys = N[C@@H](CCCCN[*:1])C(=O)[*:2]; AEEA = NCCOCCOCC(=O)O; Aib = CC(C)(N)C(=O)O; Sar = CNCC(=O)O

A short description of one series: physchem. Format: physicochemical. The settings on record: buffer, pH 7.4. As to the method:
The assay was performed to investigate the conversion half-life of prodrug to drug of the prodrugs of the invention. The conversion half-life was investigated in vitro at pH 7.4 upon incubation at 37° C.
Test compounds were dissolved to a concentration of 100 μM in phosphate-buffered saline (140 mM NaCl, 2.07 mM KCl, 8.05 mM Na2HPO4, 1.96 mM KH2PO4, pH 7.4). Solution pH was measured after dissolution and adjusted to pH 7.4 with aqueous NaOH if necessary. The solution was filtered through a 0.22 μm syringe filter, then incubated in a water bath at 37° C. Aliquots were withdrawn at defined timepoints, e.g. every 24-72 hours, for LCMS analysis.
LCMS analysis was performed using the procedure defined in LCMS_A above. The AUC of the prodrug, active drug, and DKP were determined using UV detection at 214 nm, and the ratio of prodrug AUC over total AUC of prodrug plus active drug plus DKP was calculated. The negative natural logarithm of this ratio was plotted over time, and a linear regression of this relationship was then performed.
The prodrug to drug conversion half-life of the compounds of the invention was measured as described in General Methods for Measuring Conversion Half-life.

Series [1] can be described thus: in vivo. Set-up: species or system beagle dogs. The settings on record: dog, po, 300 mg; for Tmax / half-life: male, beagle. As to the method: The purpose of this method is to determine the terminal half-life and plasma exposure in vivo of the compounds of the present invention after p.o. administration to beagle dogs, i.e. the terminal half-life and concentration of test substance that reaches circulation with time. This is done in a pharmacokinetic (PK) study, where these parameters of the compound in question are determined. By terminal half-life is generally meant the period of time it takes to halve a certain plasma concentration, measured after the initial distribution phase.
Tablet compositions comprising the test compounds obtained from Example 1 and SNAC (sodium N-(8-(2-hydroxybenzoyl)amino)caprylate) were prepared according to methods known to the person skilled in the art by mixing test substance with roller compacted SNAC and magnesium stearate as e.g. described in WO 2019/149880. Each tablet was comprised of 7.7 mg magnesium stearate, 2-4 mg of each compound tested, and 300 mg SNAC.
Male beagle dogs, 1-7 years of age and weighing 9-17 kg during the study period, were included in the study. The dogs were dosed in a fasting state. The dogs were group housed in pens (12 hours light: 12 hours dark), and fed individually and restrictedly once daily with Royal Canin Medium Adult dog food (Royal Canin Products, China Branch, or Brogaarden A/S, Denmark). The dogs were used for repeated PK studies with a suitable wash-out period between successive dosing. An appropriate acclimatisation period was given prior to initiation of the first PK study. All handling, dosing, and blood sampling of the animals were performed by trained and skilled staff. Before the studies, the dogs were fasted overnight and from 0 to 4 hours after dosing. The dogs were restricted to water 1 hour before dosing until 4 hours after dosing, but otherwise had adlibitum access to water during the whole period.
The compositions were administered by a single oral dosing to the dogs in groups of 6-8 dogs. The tablets were administered in the following manner: 10 min prior to tablet administration, the dogs may be dosed subcutaneously with approximately 3 nmol/kg of SEQ ID NO.: 7 ([…]), then tablets were placed in the back of the mouth of the dog to prevent chewing. The mouth was then closed, and 10 mL of tap water was given by syringe or gavage to facilitate swallowing of the tablet.
One blood sample was drawn before dosing, and additional samples were drawn at predefined time points after dosing, such as for up to 600 hours, to adequately cover the full plasma concentration-time absorption profile of the test substance. For each blood sample time point, approximately 0.8 mL of whole blood was collected in a 1.5 mL EDTA-coated tube, which was gently turned to mix the sample with EDTA. Blood samples were collected in EDTA buffer (8 mM) and then centrifuged at 4° C. and 2000 g for 10 minutes. Plasma was pipetted into Micronic tubes on dry ice, and kept at −20° C. or lower until analysis. Blood samples were taken as appropriate, for example from a venflon in the cephalic vein in the front leg for the first 2 hours and then with syringe from the jugular vein for the rest of the time points. The first few drops were allowed to drain from the venflon to avoid heparin saline from the venflon in the sample. All blood samples were collected into test tubes containing EDTA for stabilisation and kept on ice until centrifugation. Plasma was separated from whole blood by centrifugation and the plasma was stored at −20° C. or lower until analysis.
The plasma was analysed for test substance using LC-MS (Liquid Chromatography-Mass Spectrometry) as known to the person skilled in the art. […]

Series [2] in a line: in vivo. On the set-up: species or system Göttingen minipigs. The settings on record: female, Göttingen, minipig, iv. How it is done: The purpose of this method is to determine the half-life in vivo of the derivatives of the present invention after i.v. administration to minipigs, i.e. the prolongation of their time in the body and thereby their time of action. This is done in a pharmacokinetic (PK) study, where the terminal half-life of the derivative in question is determined. By terminal half-life is generally meant the period of time it takes to halve a certain plasma concentration, measured after the initial distribution phase.
Female Göttingen minipigs were obtained from Ellegaard Göttingen Minipigs (Dalmose, Denmark) approximately 7-14 months of age and weighing from approximately 16-35 kg were used in the studies. The minipigs were housed individually and fed restrictedly once daily with SDS minipig diet (Special Diets Services, Essex, UK).
After at 3 weeks of acclimatisation two permanent central venous catheters were implanted in vena cava caudalis in each animal. The animals were allowed 1 week recovery after the surgery, and were then used for repeated pharmacokinetic studies with a suitable wash-out period between successive derivative dosing.
The animals were fasted for approximately 18 hours before dosing and from 0 to 4 hours after dosing but had ad libitum access to water during the whole period.
The sodium salts of compounds of Examples 1 were prepared using method SX_A under General Methods for preparation of the compounds of the invention. The resulting sodium salts were dissolved to a concentration of 50-300 nmol/mL in a buffer containing 0.007% polysorbate 20, 50 mM sodium phosphate, 70 mM sodium chloride, pH 7.4. Intravenous injections (the volume corresponding to usually 1-20 nmol/kg, for example 0.02-0.05 mL/kg) of the compounds were given through one catheter, and blood was sampled at predefined time points for up to 21 days post dosing (preferably through the other catheter). Blood samples (for example 0.8 mL) were collected in 8 mM EDTA buffer and then centrifuged at 4° C. and 1942 g for 10 minutes.
Plasma was pipetted into Micronic tubes on dry ice and kept at −20° C. until analysed for plasma concentration of the compounds using ELISA, or a similar antibody-based assay, or LCMS. Individual plasma concentration-time profiles were analysed by a non-compartmental model in Phoenix WinNonLin ver. 6.4. (Pharsight Inc., Mountain View, CA, USA), and the resulting terminal half-lives (harmonic mean) determined.
The terminal half-lives and/or the observed terminal half-lives, measured as described herein in General Methods for Measuring Terminal Half-Life in Minipigs are shown in Table 7. […] This provides evidence that conversion of prodrug to parent compound is occurring in vivo. The terminal half-life of the prodrug may be faster or slower than the corresponding parent compound due to the contribution of conversion on the terminal half-life of the prodrug.

For “H-G[N(2-Aminoethyl)Gly]([γGlu-C16 diacid])Y[Aib]EGTFTSDYSILLEEQAAREFIEWLLAGGPSK([AEEA-AEEA-γGlu-C16 diacid])GAPPPS-OH [Compound 2]”, the half-life at 100 μM in the series “physchem” is 363 h. Also, in “in vivo [1]”, the AUC/Dose was 22.9 kg·h/L, the Cmax/Dose amounted to 0.18 kg/L, the Tmax turned out to be 4 h and the half-life was 142 h.

As to “H-K([γGlu-C18 diacid])[Sar]Y[Aib]EGTFTSDYSILLEEQAAREFIEWLLAGGPSK([εLys-εLys-γGlu-C16 diacid])GAPPPS-OH [Compound 13]”, the half-life at 100 μM in the series “physchem” is 137 h. In addition, in the series “in vivo [1]”, the AUC/Dose worked out at 41.3 kg·h/L, the Cmax/Dose came to 0.36 kg/L, the Tmax amounted to 4.3 h and the half-life was 121 h.

`CC[C@H](C)[C@H](NC(=O)[C@H](CC(C)C)NC(=O)[C@H](Cc1c[nH]c2ccccc12)NC(=O)[C@H](CCC(N)=O)NC(=O)[C@@H](NC(=O)[C@H](Cc1ccccc1)NC(=O)[C@H](C)NC(=O)[C@H](CCCCNC(=O)COCCOCCNC(=O)COCCOCCNC(=O)CC[C@H](NC(=O)CCCCCCCCCCCCCCCCCCC(=O)O)C(=O)O)NC(=O)[C@H](CCC(N)=O)NC(=O)[C@H](C)NC(=O)[C@@H](NC(=O)[C@H](CCCCN)NC(=O)[C@H](CC(=O)O)NC(=O)[C@H](CC(C)C)NC(=O)C(C)(C)NC(=O)[C@@H](NC(=O)[C@H](CO)NC(=O)[C@H](Cc1ccc(O)cc1)NC(=O)[C@H](CC(=O)O)NC(=O)[C@H](CO)NC(=O)[C@@H](NC(=O)[C@H](Cc1ccccc1)NC(=O)[C@@H](NC(=O)CNC(=O)[C@H](CCC(=O)O)NC(=O)C(C)(C)NC(=O)[C@H](Cc1ccc(O)cc1)NC(=O)CN(C)C(=O)[C@@H](N)CCCCNC(=O)CC[C@H](NC(=O)CCCCCCCCCCCCCCC(=O)O)C(=O)O)[C@@H](C)O)[C@@H](C)O)[C@@H](C)CC)[C@@H](C)CC)C(C)C)C(=O)N[C@@H](C)C(=O)NCC(=O)NCC(=O)N1CCC[C@H]1C(=O)N[C@@H](CO)C(=O)N[C@@H](CO)C(=O)NCC(=O)N[C@@H](C)C(=O)N1CCC[C@H]1C(=O)N1CCC[C@H]1C(=O)N1CCC[C@H]1C(=O)N[C@@H](CO)C(N)=O` [Compound 18] gave a half-life at 100 μM in “physchem” of 101 h. Also, in the series “in vivo [1]”, the AUC/Dose is 13.3 kg·h/L, the Cmax/Dose worked out at 0.15 kg/L, the Tmax was 4 h and the half-life is 88 h.

As for “H-K([γGlu-C16 diacid])[Sar]Y[Aib]EGTFTSDYSILLEEQAAREFIEWLLAGGPSK([εLys-εLys-γGlu-C16 diacid])GAPPPS-OH [Compound 12]”, in the series “physchem”, the half-life at 100 μM is 129 h. In addition, in “in vivo [1]”, the AUC/Dose stood at 50.8 kg·h/L, the Cmax/Dose is recorded as 0.46 kg/L, the Tmax stood at 1.3 h and the half-life is 143 h.

Molecule “H-L[N(2-Aminoethyl)Gly]([γGlu-C16 diacid])Y[Aib]EGTFTSDYSILLEEQAAREFIEWLLAGGPSK([AEEA-AEEA-γGlu-C16 diacid])GAPPPS-OH [Compound 5]” had a half-life at 100 μM in the series “physchem” of 74 h. For the same molecule, in “in vivo [1]”, the AUC/Dose was 23.4 kg·h/L, the Cmax/Dose was 0.25 kg/L, the Tmax was found to be 7 h and the half-life was 106 h.

Molecule `CC[C@H](C)[C@H](NC(=O)[C@H](Cc1ccccc1)NC(=O)[C@H](CCC(=O)O)NC(=O)[C@H](CCCNC(=N)N)NC(=O)[C@H](C)NC(=O)[C@H](C)NC(=O)[C@H](CCC(N)=O)NC(=O)[C@H](CCC(=O)O)NC(=O)[C@H](CCC(=O)O)NC(=O)[C@H](CC(C)C)NC(=O)[C@H](CC(C)C)NC(=O)[C@@H](NC(=O)[C@H](CO)NC(=O)[C@H](Cc1ccc(O)cc1)NC(=O)[C@H](CC(=O)O)NC(=O)[C@H](CO)NC(=O)[C@@H](NC(=O)[C@H](Cc1ccccc1)NC(=O)[C@@H](NC(=O)CNC(=O)[C@H](CCC(=O)O)NC(=O)C(C)(C)NC(=O)[C@@H](N)Cc1ccc(O)cc1)[C@@H](C)O)[C@@H](C)O)[C@@H](C)CC)C(=O)N[C@@H](CCC(=O)O)C(=O)N[C@@H](Cc1c[nH]c2ccccc12)C(=O)N[C@@H](CC(C)C)C(=O)N[C@@H](CC(C)C)C(=O)N[C@@H](C)C(=O)NCC(=O)NCC(=O)N1CCC[C@H]1C(=O)N[C@@H](CO)C(=O)N[C@@H](CCCCNC(=O)[C@@H](N)CCCCNC(=O)[C@@H](N)CCCCNC(=O)CC[C@H](NC(=O)CCCCCCCCCCCCCCC(=O)O)C(=O)O)C(=O)NCC(=O)N[C@@H](C)C(=O)N1CCC[C@H]1C(=O)N1CCC[C@H]1C(=O)N1CCC[C@H]1C(=O)N[C@@H](CO)C(=O)O` [Parent compound 2] (H-Y[Aib]EGTFTSDYSILLEEQAAREFIEWLLAGGPSK([εLys-εLys-γGlu-C16 diacid])GAPPPS-OH) had a half-life in the series “in vivo [2]” of 104 h.

Take “H-K([γGlu-C16 diacid])[Sar]Y[Aib]EGTFTSDYSILLEK([εLys-εLys-γGlu-C18 diacid])QAAREFIEWLLAGGPSSGAPPPS-OH [Compound 16]”: the half-life at 100 μM in the series “physchem” is 117 h. For the same molecule, in “in vivo [1]”, the AUC/Dose is 67.6 kg·h/L, the Cmax/Dose amounted to 0.73 kg/L, the Tmax came out at 4 h and the half-life was 96 h.

In the case of “H-K([γGlu-C18 diacid])[Sar]Y[Aib]EGTFTSDYSILLEEQAAREFIEWLLAGGPSK([εLys-εLys-γGlu-C18 diacid])GAPPPS-OH [Compound 15]”, in “physchem”, the half-life at 100 μM is 127 h. Also, in the series “in vivo [1]”, the AUC/Dose stood at 21.7 kg·h/L, the Cmax/Dose amounted to 0.20 kg/L, the Tmax was 1.5 h and the half-life is 124 h.
